Values joined by “and” are separate entries in the source; they are usually repeats but may differ in a detail not shown here. Equal values may be shown once.
Key:
[1] = system: β-glucuronidase in rat colon feces; test: Rat colon fecal homogenate stability assay; type: in vitro ADME; conditions: in vitro half-life in rat fecal supernatant-homogenate, anaerobic, 10 μM substrate, individual values when assay repeated; for half-life at 10 μM: male, rat, rat colon fecal supernatant-homogenate, read-out: T½
Excerpt: The compounds of the present invention contain a glucuronide prodrug moiety that is expected to be cleaved by β-glucuronidase enzyme. The objective of this assay was to determine the half-life for compounds of the present invention in the presence of β-glucuronidase in rat colon feces.
Following sacrifice of a naïve male rat (˜300 g) by cardiac puncture exsanguination, the colon was ligated and removed to an anaerobic chamber (AS-580, Anaerobe Systems). The fecal content was removed within the chamber and was diluted 1:10 with phosphate buffer (1 gram fecal content to 9 mL phosphate buffer) and the resulting mixture was homogenized using a handheld Omni Tissue Master. The fecal homogenate was centrifuged at 2000 g for 10 min to remove bulk material and the supernatant was removed and used for the incubations.
DMSO stock solutions (10 mM) of the test compounds and sulfasalazine (control) were prepared. Sulfasalazine was used as a positive control to confirm viability of the fecal supernatant-homogenate (see, e.g., Azad Khan et al., Clinical Science (1983) 64, 349-354). If the in vitro half-life (T½) for sulfasalazine in the fecal sample was less than 30 min, the fecal sample was deemed to be viable and in true anaerobic conditions. However, if the T½ for sulfasalazine was greater than 30 min, the fecal sample was typically contaminated with oxygen and was not viable. The final substrate concentration of each assay was 10 μM. Reactions were started by adding a 5 μL aliquot of diluted test compound stock solution into 300 μL of rat fecal supernatant-homogenate. At 0, 15, 30, 60, 90, and 120 min post reaction initiation, a 50 μL aliquot was removed and added to a mixture of 200 μL of acetonitrile with 3% formic acid and an internal standard. All samples were centrifuged at 2000 g for 10 min after which 50 μL of supernatant was diluted into 150 μL of water for analysis on an LC-MS system. In vitro half-lives (T½) for the test compounds were calculated as follows: T½=0.693/elimination rate constant. When the assay was performed more than once, individual values are reported.

[2] = system: oxazolone-induced colitis; test: Mouse model of oxazolone-induced colitis; type: in vivo; conditions: PO
Description: Oxazolone-induced colitis is an experimental model that has a histological resemblance to human ulcerative colitis (Heller et al. […], 2002, 17, 629-638). Adult BALB/C mice (25-28 g, 9-12 weeks of age) from BioNeeds (India) were used in the assay. On Day 1, animals were lightly anesthetized with isoflurane and the hairs between the shoulder were carefully removed. Oxazolone (6 mg/mouse, 100 μL, 4:1 acetone:olive oil formulation) or vehicle solution was slowly applied to the bare skin patch to induce skin sensitization. Six days after skin sensitization, the mice were fasted overnight and then anesthetized with ketamine and xylazine administered intraperitoneally. A 1 mL syringe filled with oxazolone solution (0.5 mg/50 μL/mouse in 50% ethanol) or 50% ethanol/saline was inserted carefully ˜3.8 cm into the colon of the mouse. Animals were kept in a head down position and oxazolone or vehicle solution was rectally instilled very slowly over a minute. The mice were held vertically (head down) for another minute to ensure that the entire oxazolone or vehicle solution remained inside the colon. Test compound treatment (PO, BID or TID) or vehicle was initiated the evening prior to the oxazolone intrarectal (IR) challenge. On both first (Day 1) and second (Day 2) days post-oxazolone IR challenge, the Disease Activity Index (DAI) was assessed by treatment-blinded experimenters for each mouse, according to the following subscores: stool consistency (0, normal; 2, loose; 4, diarrhea), gross bleeding and hemoccult test (0, absence; 2, blood tinged; 4, overt blood presence), and weight loss (0, none; 1, 1%-5%; 2, 6^%-10%; 3, 11%-15%; 4, more than 15%); DAI=average of (stool consistency+blood presence+weight loss scores).
An area-under-the-curve (AUC) calculation based on total DAI scores was performed to track disease progression during the course of the experiment. AUC for each experimental group was calculated as: AUC=[(Day 1−Day 0)*Average (DAI Score of Day 0 & Day 1)]+[(Day 2−Day 1)*Average (DAI Score of Day 1 & Day 2)]. A Student's t-test compared the DAI AUC score of the vehicle/vehicle and vehicle/oxazolone groups to evaluate whether disease was induced following oxazolone treatment. This was followed by a one-way analysis of variance (ANOVA), with Dunnett's post hoc test, to compare the DAI AUC score of the vehicle/oxazolone and test compound/oxazolone groups. Statistical significance was defined by an α level set at p<0.05.

[3] = Oral pharmacokinetics in rat assay; type: in vivo; conditions: liberated tofacitinib AUC0-6 h in colon tissue; male Sprague Dawley rats, single PO dose 5 mg/kg of test compound
Description: When cleaved by β-glucuronidase enzyme, the compounds of the present invention release tofacitinib. The object of this assay was to determine tofacitinib exposure (AUC0-6 h) in colon tissue and plasma following oral dosing of compounds of the present invention in rats.
Male Sprague Dawley rats (n=2/time point) received a single PO oral gavage dose (5 mg/kg in 1:20 mixture of 5% DMSO and 1% HPMC) of test compounds. At 0.5, 1, 3, 6 and 24 h post-dosing, rats were sacrificed via cardiac puncture exsanguination, and blood samples were taken and placed into sample tubes (Microtainer, Becton, Dickinson and Company) containing sodium fluoride and then placed on ice. Plasma was obtained by centrifugation (Eppendorf centrifuge, 5804R) for 4 minutes at approximately 12,000 rpm at 4° C.
The colons were removed from exsanguinated rats and the colon contents gently removed. The colons were flushed with saline and patted dry. The colons were then homogenized in 3× the weight of sterile water using a tissue homogenizer (Precellys homogenizer, Bertin Instruments) at approximately 4° C. All samples were stored at −80° C. for later bioanalysis.
The concentration of tofacitinib in each sample was determined as follows: the plasma and colon samples were vortexed, combined with a 50 μL aliquot of rat plasma, extracted with 200 μL of ACN containing an internal standard and quantified against the internal standard by LC-MS. An area-under-the-concentration curve (AUC0-6 h) was calculated for plasma and colon test compound and liberated tofacitinib. A key parameter to assess suitability for localized delivery of tofacitinib to the colon was the tofacitinib colon to plasma AUC ratio.

[4] = 3, 10 and 30 mg/kg, BID, BALB/C mice, vs vehicle/oxazolone, p<0.05

Q: Which T½ [1] does the source give for `C[C@@H]1CCN(C(=O)CC#N)C[C@@H]1N(C)c1ncnc2c1ccn2C(=O)N(C)Cc1ccccc1O[C@@H]1O[C@H](C(=O)O)[C@@H](O)[C@H](O)[C@H]1O` [Compound III-6, (2S,3S,4S,5R,6S)-6-(2-((4-(((3R,4R)-1-(2-Cyanoacetyl)-4-methylpiperidin-3-yl)(methyl)amino)-N-methyl-7H-pyrrolo[2,3-d]pyrimidine-7-carboxamido)methyl)phenoxy)-3,4,5-trihydroxytetrahydro-2H-pyran-2-carboxylic Acid] here?
A: <15, <15 min

Q: And the half-life at 10 μM [1]?
A: < 15 min

Q: And the “reversal of oxazolone-induced colitis (DAI AUC score)” value (from here on “reversal of oxazolone-induced colitis”) [2, 4]?
A: did not produced a statistically significant effect

Q: Which T½ [1] does the source give for `C[C@@H]1CCN(C(=O)CC#N)C[C@@H]1N(C)c1ncnc2c1ccn2C(=O)N(C)c1ccccc1O[C@@H]1O[C@H](C(=O)O)[C@@H](O)[C@H](O)[C@H]1O` [Compound III-2, (2S,3S,4S,5R,6S)-6-(2-(4-(((3R,4R)-1-(2-Cyanoacetyl)-4-methylpiperidin-3-yl)(methyl)amino)-N-methyl-7H-pyrrolo[2,3-d]pyrimidine-7-carboxamido)phenoxy)-3,4,5-trihydroxytetrahydro-2H-pyran-2-carboxylic Acid] here?
A: 29 min and < 15 min

Q: What about the half-life at 10 μM [1] of the same molecule?
A: 20 min

Q: What about the “reversal of oxazolone-induced colitis” value [2, 4] of the same molecule?
A: statistically significant reversal

Q: What about the “Colon AUC” value [3] of the same molecule?
A: 33.2 µg·h/g

Q: With `C[C@@H]1CCN(C(=O)CC#N)C[C@@H]1N(C)c1ncnc2c1ccn2C(=O)N(C)Cc1cc([N+](=O)[O-])ccc1O[C@@H]1O[C@H](C(=O)O)[C@@H](O)[C@H](O)[C@H]1O` [Compound III-7, (2S,3S,4S,5R,6S)-6-(2-((4-(((3R,4R)-1-(2-Cyanoacetyl)-4-methylpiperidin-3-yl)(methyl)amino)-N-methyl-7H-pyrrolo[2,3-d]pyrimidine-7-carboxamido)methyl)-4-nitrophenoxy)-3,4,5-trihydroxytetrahydro-2H-pyran-2-carboxylic Acid] as the molecule, how does the T½ [1] read?
A: <15, <15 min

Q: What about the half-life at 10 μM [1] of the same molecule?
A: < 15 min

Q: With `C[C@@H]1CCN(C(=O)CC#N)C[C@@H]1N(C)c1ncnc2c1ccn2C(=O)N(C)CCN(C)C(=O)OCc1ncccc1O[C@@H]1O[C@H](C(=O)O)[C@@H](O)[C@H](O)[C@H]1O` [Compound V-2, (2S,3S,4S,5R,6S)-6-((2-((((2-(4-(((3R,4R)-1-(2-Cyanoacetyl)-4-methylpiperidin-3-yl)(methyl)amino)-N-methyl-7H-pyrrolo[2,3-d]pyrimidine-7-carboxamido)ethyl)(methyl)carbamoyl)oxy)methyl)pyridin-3-yl)oxy)-3,4,5-trihydroxytetrahydro-2H-pyran-2-carboxylic Acid] as the molecule, how does the half-life at 10 μM [1] read?
A: < 15 min

Q: For `C[C@@H]1CCN(C(=O)CC#N)C[C@@H]1N(C)c1ncnc2c1ccn2C(=O)N(C)c1cc(Cl)ccc1O[C@@H]1O[C@H](C(=O)O)[C@@H](O)[C@H](O)[C@H]1O` [Compound III-5, (2S,3S,4S,5R,6S)-6-(4-Chloro-2-(4-(((3R,4R)-1-(2-cyanoacetyl)-4-methylpiperidin-3-yl)(methyl)amino)-N-methyl-7H-pyrrolo[2,3-d]pyrimidine-7-carboxamido)phenoxy)-3,4,5-trihydroxytetrahydro-2H-pyran-2-carboxylic Acid], which half-life at 10 μM [1] is on record?
A: < 15 min

Q: What does the source list for `C[C@@H]1CCN(C(=O)CC#N)C[C@@H]1N(C)c1ncnc2c1ccn2C(=O)N(C)CCN(C)C(=O)OCc1ccccc1O[C@@H]1O[C@H](C(=O)O)[C@@H](O)[C@H](O)[C@H]1O` [Compound V-1, (2S,3S,4S,5R,6S)-6-(2-((((2-(4-(((3R,4R)-1-(2-Cyanoacetyl)-4-methylpiperidin-3-yl)(methyl)amino)-N-methyl-7H-pyrrolo[2,3-d]pyrimidine-7-carboxamido)ethyl)(methyl)carbamoyl)oxy)methyl)phenoxy)-3,4,5-trihydroxytetrahydro-2H-pyran-2-carboxylic Acid]?
A: T½ [1]: <15, <15 min; half-life at 10 μM [1]: < 15 min

Q: For `C[C@@H]1CCN(C(=O)CC#N)C[C@@H]1N(C)c1ncnc2c1ccn2C(=O)N(C)c1cc(C(F)(F)F)ccc1O[C@@H]1O[C@H](C(=O)O)[C@@H](O)[C@H](O)[C@H]1O` [Compound III-4, (2S,3S,4S,5R,6S)-6-(2-(4-(((3R,4R)-1-(2-cyanoacetyl)-4-methylpiperidin-3-yl)(methyl)amino)-N-methyl-7H-pyrrolo[2,3-d]pyrimidine-7-carboxamido)-4-(trifluoromethyl)phenoxy)-3,4,5-trihydroxytetrahydro-2H-pyran-2-carboxylic Acid], which T½ [1] is on record?
A: 6 min and < 15 min

Q: With `Cc1ccc(O[C@@H]2O[C@H](C(=O)O)[C@@H](O)[C@H](O)[C@H]2O)c(N(C)C(=O)n2ccc3c(N(C)[C@H]4CN(C(=O)CC#N)CC[C@H]4C)ncnc32)c1` [Compound III-3, (2S,3S,4S,5R,6S)-6-(2-(4-(((3R,4R)-1-(2-Cyanoacetyl)-4-methylpiperidin-3-yl)(methyl)amino)-N-methyl-7H-pyrrolo[2,3-d]pyrimidine-7-carboxamido)-4-methylphenoxy)-3,4,5-trihydroxytetrahydro-2H-pyran-2-carboxylic Acid] as the molecule, how does the T½ [1] read?
A: < 15 min

Q: And the half-life at 10 μM [1]?
A: 20 min

Q: Which T½ [1] does the source give for `C[C@@H]1CCN(C(=O)CC#N)C[C@@H]1N(C)c1ncnc2c1ccn2C(=O)N(C)Cc1ccccc1NC(=O)O[C@@H]1O[C@H](C(=O)O)[C@@H](O)[C@H](O)[C@H]1O` [Compound IV-1] here?
A: 1 min and < 15 min

Q: And the “Colon AUC” value [3]?
A: 5.15 µg·h/g

Q: With `C[C@@H]1CCN(C(=O)CC#N)C[C@@H]1N(C)c1ncnc2[nH]ccc12` [tofacitinib, 3-((3R,4R)-4-methyl-3-(methyl(7H-pyrrolo[2,3-d]pyrimidin-4-yl)amino)piperidin-1-yl)-3-oxopropanenitrile] as the molecule, how does the “reversal of oxazolone-induced colitis” value ([2]; positive control, 60 mg/kg, experiment with Compound 11-6) read?
A: did produce a statistically significant reversal

Q: And the “reversal of oxazolone-induced colitis” value ([2]; positive control, 30 and 60 mg/kg, BID, experiment with Compound II-1)?
A: statistically significant reversal

Q: And the “reversal of oxazolone-induced colitis” value ([2]; positive control, 30 and 60 mg/kg, BID, experiment with Compound III-1)?
A: did not produce a statistically significant reversal

Q: And the “reversal of oxazolone-induced colitis” value ([2]; positive control, 30 and 60 mg/kg, BID, experiment with Compound III-2)?
A: statistically significant reversal
